Measurements taken from US20230085307A1, “PYRIDAZINONE COMPOUND AND HERBICIDE” (NISSAN CHEMICAL CORPORATION, priority 2019, published 2023).

Legend:
barnyard grass [1] = experiment: Test Example 4: herbicidal effect by soil treatment (Table 19, symbol H); assay type: in vivo, barnyard grass (Echinochloa crus-galli); settings: amount of applied herbicide 320 g/ha
In short: (§1)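 Pre-emergence style soil spray: seeds under ~1.5 cm sterilized diluvial soil received a uniform coat of emulsion diluted to the predetermined herbicide amount. Greenhouse 25–30° C; readout at week three on previously defined criteria.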

windgrass [2] = experiment: Test Example 5: herbicidal effect by foliage application, plastic box (Table 20, symbol L); assay type: in vivo, windgrass (Apera spica-venti); settings: foliage application, 320 g/ha, three weeks after application
In short: (§2)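 Plants were sown into sterilized diluvial soil under about 1.5 cm cover and kept in a greenhouse at 25° C. to 30° C. Fourteen days on, foliage received an even spray of the diluted emulsion. Herbicidal or crop effect was judged three weeks afterwards.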

Italian ryegrass [3] = experiment: Test Example 4: herbicidal effect by soil treatment (Table 19, symbol K); assay type: in vivo, Italian ryegrass (Lolium multiflorum); settings: amount of applied herbicide 320 g/ha
In short: as §1

blackgrass [4] = experiment: Test Example 5: herbicidal effect by foliage application, plastic box (Table 20, symbol J); assay type: in vivo, blackgrass (Alopecurus myosuroides); settings: foliage application, 320 g/ha, three weeks after application
In short: as §2

barnyard grass [5] = experiment: Test Example 5: herbicidal effect by foliage application, plastic box (Table 20, symbol H); assay type: in vivo, barnyard grass (Echinochloa crus-galli); settings: foliage application, 320 g/ha, three weeks after application
In short: as §2

redroot pigweed [6] = experiment: Test Example 4: herbicidal effect by soil treatment (Table 19, symbol N); assay type: in vivo, redroot pigweed (Amaranthus retroflexus); settings: amount of applied herbicide 320 g/ha
In short: as §1

blackgrass [7] = experiment: Test Example 4: herbicidal effect by soil treatment (Table 19, symbol J); assay type: in vivo, blackgrass (Alopecurus myosuroides); settings: amount of applied herbicide 320 g/ha
In short: as §1

persian speedwell [8] = experiment: Test Example 4: herbicidal effect by soil treatment (Table 19, symbol R); assay type: in vivo, Persian speedwell (Veronica persica); settings: amount of applied herbicide 320 g/ha
In short: as §1

wild oat [9] = experiment: Test Example 4: herbicidal effect by soil treatment (Table 19, symbol I); assay type: in vivo, wild oat (Avena fatua); settings: amount of applied herbicide 320 g/ha
In short: as §1

Chinese sprangletop = experiment: Test Example 3: herbicidal effect by foliage application, Wagner pot (Table 18, symbol D); assay type: in vivo, chinese sprangletop (Leptochloa chinensis); settings: 320 g/ha
In short: (§3)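 Plants were sown in alluvial soil held under 0.1–0.5 cm standing water and grown 14 days in a greenhouse at 25–30 °C. An emulsifiable formulation, water-diluted to the set dose, was then sprayed onto the foliage, and effects were scored three weeks later using previously defined criteria.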

southern crabgrass [10] = experiment: Test Example 4: herbicidal effect by soil treatment (Table 19, symbol F); assay type: in vivo, southern crabgrass (Digitaria ciliaris); settings: amount of applied herbicide 320 g/ha
In short: as §1

false cleavers [11] = experiment: Test Example 4: herbicidal effect by soil treatment (Table 19, symbol Q); assay type: in vivo, false cleavers (Galium spurium); settings: amount of applied herbicide 320 g/ha
In short: as §1

green foxtail [12] = experiment: Test Example 4: herbicidal effect by soil treatment (Table 19, symbol G); assay type: in vivo, green foxtail (Setaria viridis); settings: amount of applied herbicide 320 g/ha
In short: as §1

chickweed [13] = experiment: Test Example 4: herbicidal effect by soil treatment (Table 19, symbol P); assay type: in vivo, common chickweed (Stellaria media); settings: amount of applied herbicide 320 g/ha
In short: as §1

rice flat sedge = experiment: Test Example 3: herbicidal effect by foliage application, Wagner pot (Table 18, symbol E); assay type: in vivo, rice flat sedge (Cyperus iria); settings: 320 g/ha
In short: as §3

barnyard grass [14] = experiment: Test Example 3: herbicidal effect by foliage application, Wagner pot (Table 18, symbol H); assay type: in vivo, barnyard grass (Echinochloa crus-galli); settings: 320 g/ha
In short: as §3

Italian ryegrass [15] = experiment: Test Example 5: herbicidal effect by foliage application, plastic box (Table 20, symbol K); assay type: in vivo, Italian ryegrass (Lolium multiflorum); settings: foliage application, 320 g/ha, three weeks after application
In short: as §2

persian speedwell [16] = experiment: Test Example 5: herbicidal effect by foliage application, plastic box (Table 20, symbol R); assay type: in vivo, Persian speedwell (Veronica persica); settings: foliage application, 320 g/ha, three weeks after application
In short: as §2

southern crabgrass [17] = experiment: Test Example 5: herbicidal effect by foliage application, plastic box (Table 20, symbol F); assay type: in vivo, southern crabgrass (Digitaria ciliaris); settings: foliage application, 320 g/ha, three weeks after application
In short: as §2

oval-leafed pondweed = experiment: Test Example 1: herbicidal activity, application before weed generation under submerged conditions (Table 16, symbol C); assay type: in vivo, oval-leafed pondweed (Monochoria vaginalis); settings: 320 g/ha applied herbicide
In short: (§4)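 Alluvial soil was flooded to 4 cm depth, weed seeds were sown mixed and 2.5-leaf rice seedlings were transplanted. On sowing day, the compound's emulsion, diluted in water to a set dose, was applied to the water surface. Plants grew at 25–30 °C and were scored 0–5 after three weeks.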

redroot pigweed [18] = experiment: Test Example 5: herbicidal effect by foliage application, plastic box (Table 20, symbol N); assay type: in vivo, redroot pigweed (Amaranthus retroflexus); settings: foliage application, 320 g/ha, three weeks after application
In short: as §2

late watergrass = experiment: Test Example 1: herbicidal activity, application before weed generation under submerged conditions (Table 16, symbol A); assay type: in vivo, late watergrass (Echinochloa oryzicola); settings: 320 g/ha applied herbicide
In short: as §4

green foxtail [19] = experiment: Test Example 5: herbicidal effect by foliage application, plastic box (Table 20, symbol G); assay type: in vivo, green foxtail (Setaria viridis); settings: foliage application, 320 g/ha, three weeks after application
In short: as §2

wild oat [20] = experiment: Test Example 5: herbicidal effect by foliage application, plastic box (Table 20, symbol I); assay type: in vivo, wild oat (Avena fatua); settings: foliage application, 320 g/ha, three weeks after application
In short: as §2

windgrass [21] = experiment: Test Example 4: herbicidal effect by soil treatment (Table 19, symbol L); assay type: in vivo, windgrass (Apera spica-venti); settings: amount of applied herbicide 320 g/ha
In short: as §1

velvetleaf [22] = experiment: Test Example 4: herbicidal effect by soil treatment (Table 19, symbol M); assay type: in vivo, velvetleaf (Abutilon theophrasti); settings: amount of applied herbicide 320 g/ha
In short: as §1

velvetleaf [23] = experiment: Test Example 5: herbicidal effect by foliage application, plastic box (Table 20, symbol M); assay type: in vivo, velvetleaf (Abutilon theophrasti); settings: foliage application, 320 g/ha, three weeks after application
In short: as §2

chickweed [24] = experiment: Test Example 5: herbicidal effect by foliage application, plastic box (Table 20, symbol P); assay type: in vivo, common chickweed (Stellaria media); settings: foliage application, 320 g/ha, three weeks after application
In short: as §2

false cleavers [25] = experiment: Test Example 5: herbicidal effect by foliage application, plastic box (Table 20, symbol Q); assay type: in vivo, false cleavers (Galium spurium); settings: foliage application, 320 g/ha, three weeks after application
In short: as §2

Japanese bulrush = experiment: Test Example 1: herbicidal activity, application before weed generation under submerged conditions (Table 16, symbol B); assay type: in vivo, Japanese bulrush (Schoenoplectus juncoides); settings: 320 g/ha applied herbicide
In short: as §4

lambsquarters [26] = experiment: Test Example 4: herbicidal effect by soil treatment (Table 19, symbol O); assay type: in vivo, lambsquarters (Chenopodium album); settings: amount of applied herbicide 320 g/ha
In short: as §1

lambsquarters [27] = experiment: Test Example 5: herbicidal effect by foliage application, plastic box (Table 20, symbol O); assay type: in vivo, lambsquarters (Chenopodium album); settings: foliage application, 320 g/ha, three weeks after application
In short: as §2

Row | SMILES | herbicidal effect rating, H: barnyard grass (barnyard grass [1]) | herbicidal effect grade, L: windgrass (windgrass [2]) | herbicidal effect rating, K: Italian ryegrass (Italian ryegrass [3]) | herbicidal effect grade, J: blackgrass (blackgrass [4]) | herbicidal effect grade, H: barnyard grass (barnyard grass [5]) | herbicidal effect rating, N: redroot pigweed (redroot pigweed [6]) | herbicidal effect rating, J: blackgrass (blackgrass [7]) | herbicidal effect rating, R: persian speedwell (persian speedwell [8]) | herbicidal effect rating, I: wild oat (wild oat [9]) | herbicidal effect on D (Chinese sprangletop), rating 0-5 (Chinese sprangletop) | herbicidal effect rating, F: southern crabgrass (southern crabgrass [10]) | herbicidal effect rating, Q: false cleavers (false cleavers [11]) | herbicidal effect rating, G: green foxtail (green foxtail [12]) | herbicidal effect rating, P: chickweed (chickweed [13]) | herbicidal effect on E (rice flat sedge), rating 0-5 (rice flat sedge) | herbicidal effect on H (barnyard grass), rating 0-5 (barnyard grass [14]) | herbicidal effect grade, K: Italian ryegrass (Italian ryegrass [15]) | herbicidal effect grade, R: persian speedwell (persian speedwell [16]) | herbicidal effect grade, F: southern crabgrass (southern crabgrass [17]) | Herbicidal effect on C: oval-leafed pondweed (grade 0-5) (oval-leafed pondweed) | other results
1 | CCCC(=O)Oc1c(C)nn(C)c(=O)c1-c1c(-c2ccc(N(C)C)cc2)sc2ccccc12 [1-040] | 0 (Herbicidal rate of 5% or less (almost no effect)) | 0 (Herbicidal rate of 5% or less (almost no effect)) | 3 (Herbicidal rate of 40% or more and less than 70%) | 0 (Herbicidal rate of 5% or less (almost no effect)) | 3 (Herbicidal rate of 40% or more and less than 70%) | 0 (Herbicidal rate of 5% or less (almost no effect)) | 0 (Herbicidal rate of 5% or less (almost no effect)) | 0 (Herbicidal rate of 5% or less (almost no effect)) | 0 (Herbicidal rate of 5% or less (almost no effect)) | 3 (Herbicidal rate of 40% or more and less than 70%) | 0 (Herbicidal rate of 5% or less (almost no effect)) | 0 (Herbicidal rate of 5% or less (almost no effect)) | 0 (Herbicidal rate of 5% or less (almost no effect)) | 0 (Herbicidal rate of 5% or less (almost no effect)) | 5 (Herbicidal rate of 90% or more (almost completely withered)) | 4 (Herbicidal rate of 70% or more and less than 90%) | 4 (Herbicidal rate of 70% or more and less than 90%) | 5 (Herbicidal rate of 90% or more (almost completely withered)) | 4 (Herbicidal rate of 70% or more and less than 90%) | 1 (Herbicidal rate of 5% or more and less than 20%) | herbicidal effect grade, N: redroot pigweed (redroot pigweed [18]): 5 (Herbicidal rate of 90% or more (almost completely withered)); Herbicidal effect on A: late watergrass (grade 0-5) (late watergrass): 3 (Herbicidal rate of 40% or more and less than 70%); herbicidal effect grade, G: green foxtail (green foxtail [19]): 5 (Herbicidal rate of 90% or more (almost completely withered)); herbicidal effect grade, I: wild oat (wild oat [20]): 0 (Herbicidal rate of 5% or less (almost no effect)); herbicidal effect rating, L: windgrass (windgrass [21]): 0 (Herbicidal rate of 5% or less (almost no effect)); herbicidal effect rating, M: velvetleaf (velvetleaf [22]): 0 (Herbicidal rate of 5% or less (almost no effect)); herbicidal effect grade, M: velvetleaf (velvetleaf [23]): 5 (Herbicidal rate of 90% or more (almost completely withered)); herbicidal effect grade, P: chickweed (chickweed [24]): 5 (Herbicidal rate of 90% or more (almost completely withered)); herbicidal effect grade, Q: false cleavers (false cleavers [25]): 3 (Herbicidal rate of 40% or more and less than 70%); Herbicidal effect on B: Japanese bulrush (grade 0-5) (Japanese bulrush): 3 (Herbicidal rate of 40% or more and less than 70%); herbicidal effect rating, O: lambsquarters (lambsquarters [26]): 0 (Herbicidal rate of 5% or less (almost no effect)); herbicidal effect grade, O: lambsquarters (lambsquarters [27]): 4 (Herbicidal rate of 70% or more and less than 90%)
2 | COc1ccc(-c2sc3ccccc3c2-c2c(O)c(C)nn(C)c2=O)cc1F [1-049] | 3 (Herbicidal rate of 40% or more and less than 70%) | 0 (Herbicidal rate of 5% or less (almost no effect)) | 0 (Herbicidal rate of 5% or less (almost no effect)) | 0 (Herbicidal rate of 5% or less (almost no effect)) | 4 (Herbicidal rate of 70% or more and less than 90%) | 4 (Herbicidal rate of 70% or more and less than 90%) | 0 (Herbicidal rate of 5% or less (almost no effect)) | 4 (Herbicidal rate of 70% or more and less than 90%) | 0 (Herbicidal rate of 5% or less (almost no effect)) | 3 (Herbicidal rate of 40% or more and less than 70%) | 2 (Herbicidal rate of 20% or more and less than 40%) | 0 (Herbicidal rate of 5% or less (almost no effect)) | 3 (Herbicidal rate of 40% or more and less than 70%) | 3 (Herbicidal rate of 40% or more and less than 70%) | 5 (Herbicidal rate of 90% or more (almost completely withered)) | 5 (Herbicidal rate of 90% or more (almost completely withered)) | 4 (Herbicidal rate of 70% or more and less than 90%) | 5 (Herbicidal rate of 90% or more (almost completely withered)) | 4 (Herbicidal rate of 70% or more and less than 90%) | 0 (Herbicidal rate of 5% or less (almost no effect)) | herbicidal effect grade, N: redroot pigweed (redroot pigweed [18]): 3 (Herbicidal rate of 40% or more and less than 70%); Herbicidal effect on A: late watergrass (grade 0-5) (late watergrass): 4 (Herbicidal rate of 70% or more and less than 90%); herbicidal effect grade, G: green foxtail (green foxtail [19]): 4 (Herbicidal rate of 70% or more and less than 90%); herbicidal effect grade, I: wild oat (wild oat [20]): 1 (Herbicidal rate of 5% or more and less than 20%); herbicidal effect rating, L: windgrass (windgrass [21]): 0 (Herbicidal rate of 5% or less (almost no effect)); herbicidal effect rating, M: velvetleaf (velvetleaf [22]): 0 (Herbicidal rate of 5% or less (almost no effect)); herbicidal effect grade, M: velvetleaf (velvetleaf [23]): 5 (Herbicidal rate of 90% or more (almost completely withered)); herbicidal effect grade, P: chickweed (chickweed [24]): 5 (Herbicidal rate of 90% or more (almost completely withered)); herbicidal effect grade, Q: false cleavers (false cleavers [25]): 3 (Herbicidal rate of 40% or more and less than 70%); Herbicidal effect on B: Japanese bulrush (grade 0-5) (Japanese bulrush): 1 (Herbicidal rate of 5% or more and less than 20%); herbicidal effect rating, O: lambsquarters (lambsquarters [26]): 3 (Herbicidal rate of 40% or more and less than 70%); herbicidal effect grade, O: lambsquarters (lambsquarters [27]): 3 (Herbicidal rate of 40% or more and less than 70%)
